According to ChEMBL document CHEMBL3046556, “Microwave-assisted synthesis and antimicrobial screening of new imidazole derivatives bearing 4-thiazolidinone nucleus” (2013):
Converted amounts (≈) assume the structure as drawn. The source made the active and inactive calls. The rule behind the calls is not given here.

How the values were obtained:
Aspergillus niger [1] = experiment: Antifungal activity against Aspergillus niger MTCC 282 assessed as growth inhibition after 48 hr by broth dilution method; format: functional; settings: MTCC 282, 48 h
Pseudomonas aeruginosa [2] = experiment: Antibacterial activity against Pseudomonas aeruginosa MTCC 1688 assessed as growth inhibition after 24 hr by NCCLS broth dilution method; format: functional; settings: MTCC 1688, 24 h
Candida albicans [3] = experiment: Antifungal activity against Candida albicans MTCC 227 assessed as growth inhibition after 48 hr by broth dilution method; format: functional; settings: MTCC 227, 48 h
Escherichia coli [4] = experiment: Antibacterial activity against Escherichia coli MTCC 443 assessed as growth inhibition after 24 hr by NCCLS broth dilution method; format: functional; settings: MTCC 443, 24 h
Streptococcus pyogenes [5] = experiment: Antibacterial activity against Streptococcus pyogenes MTCC 442 assessed as growth inhibition after 24 hr by NCCLS broth dilution method; format: functional; settings: MTCC 442, 24 h
Aspergillus clavatus [6] = experiment: Antifungal activity against Aspergillus clavatus MTCC 1323 assessed as growth inhibition after 48 hr by broth dilution method; format: functional; settings: MTCC 1323, 48 h
Staphylococcus aureus [7] = experiment: Antibacterial activity against Staphylococcus aureus MTCC 96 assessed as growth inhibition after 24 hr by NCCLS broth dilution method; format: functional; settings: MTCC 96, 24 h
Escherichia coli [8] = experiment: Antibacterial activity against Escherichia coli MTCC 443 assessed as growth inhibition at 12.5 to 1000 ug/mL after 24 hr by NCCLS broth dilution method; format: functional, organism-based
Pseudomonas aeruginosa [9] = experiment: Antibacterial activity against Pseudomonas aeruginosa MTCC 1688 assessed as growth inhibition at 12.5 to 1000 ug/mL after 24 hr by NCCLS broth dilution method; format: functional, organism-based
Streptococcus pyogenes [10] = experiment: Antibacterial activity against Streptococcus pyogenes MTCC 442 assessed as growth inhibition at 12.5 to 1000 ug/mL after 24 hr by NCCLS broth dilution method; format: functional, organism-based
Staphylococcus aureus [11] = experiment: Antibacterial activity against Staphylococcus aureus MTCC 96 assessed as growth inhibition at 12.5 to 1000 ug/mL after 24 hr by NCCLS broth dilution method; format: functional, organism-based
Aspergillus clavatus [12] = experiment: Antifungal activity against Aspergillus clavatus MTCC 1323 assessed as growth inhibition at 12.5 to 1000 ug/mL after 48 hr by broth dilution method; format: functional, organism-based
Candida albicans [13] = experiment: Antifungal activity against Candida albicans MTCC 227 assessed as growth inhibition at 12.5 to 1000 ug/mL after 48 hr by broth dilution method; format: functional, organism-based
Aspergillus niger [14] = experiment: Antifungal activity against Aspergillus niger MTCC 282 assessed as growth inhibition at 12.5 to 1000 ug/mL after 48 hr by broth dilution method; format: functional, organism-based

MIC (Aspergillus niger [1]) [µg/mL]	MIC (Pseudomonas aeruginosa [2]) [µg/mL]	MIC (Candida albicans [3]) [µg/mL]	MIC (Escherichia coli [4]) [µg/mL]	MIC (Streptococcus pyogenes [5]) [µg/mL]	MIC (Aspergillus clavatus [6]) [µg/mL]	MIC (Staphylococcus aureus [7]) [µg/mL]	SMILES	growth inhibition (GI) (Escherichia coli [8])	growth inhibition (GI) (Pseudomonas aeruginosa [9])	growth inhibition (GI) (Streptococcus pyogenes [10])	growth inhibition (GI) (Staphylococcus aureus [11])	growth inhibition (GI) (Aspergillus clavatus [12])	growth inhibition (GI) (Candida albicans [13])	growth inhibition (GI) (Aspergillus niger [14])
500 (≈ 1200 µM)	500 (≈ 1200 µM)	1000 (≈ 2400 µM)	1000 (≈ 2400 µM)	1000 (≈ 2400 µM)	500 (≈ 1200 µM)	250 (≈ 599 µM)	CC1=N/C(=C\c2ccccc2)C(=O)N1c1ccc(/C(C)=N/N=C2/NC(=O)CS2)cc1							
100 (≈ 283 µM)		500 (≈ 1420 µM)			100 (≈ 283 µM)		COC1=CC(=O)C[C@@H](C)[C@]12Oc1c(Cl)c(OC)cc(OC)c1C2=O [GRISEOFULVIN]							
		1000 (≈ 3120 µM)			1000 (≈ 3120 µM)		CC(=O)c1ccc(N2C(=O)/C(=C\c3ccccc3O)N=C2C)cc1	inactive	inactive	inactive	inactive			
100 (≈ 232 µM)	250 (≈ 579 µM)	500 (≈ 1160 µM)	250 (≈ 579 µM)	25 (≈ 57.9 µM)	250 (≈ 579 µM)	25 (≈ 57.9 µM)	CC1=N/C(=C\c2ccccc2C)C(=O)N1c1ccc(/C(C)=N/N=C2/NC(=O)CS2)cc1							
500 (≈ 1110 µM)	250 (≈ 553 µM)	500 (≈ 1110 µM)	1000 (≈ 2210 µM)	100 (≈ 221 µM)	250 (≈ 553 µM)	250 (≈ 553 µM)	CC1=N/C(=C\c2ccc(Cl)cc2)C(=O)N1c1ccc(/C(C)=N/N=C2/NC(=O)CS2)cc1							
250 (≈ 577 µM)	250 (≈ 577 µM)	500 (≈ 1150 µM)	250 (≈ 577 µM)	250 (≈ 577 µM)	250 (≈ 577 µM)	100 (≈ 231 µM)	CC1=N/C(=C\c2cccc(O)c2)C(=O)N1c1ccc(/C(C)=N/N=C2/NC(=O)CS2)cc1							
500 (≈ 1150 µM)	500 (≈ 1150 µM)	1000 (≈ 2300 µM)	250 (≈ 574 µM)	100 (≈ 230 µM)	500 (≈ 1150 µM)	500 (≈ 1150 µM)	CC1=N/C(=C\c2ccccc2F)C(=O)N1c1ccc(/C(C)=N/N=C2/NC(=O)CS2)cc1							
12.5 (≈ 29 µM)	250 (≈ 579 µM)	250 (≈ 579 µM)	50 (≈ 116 µM)	25 (≈ 57.9 µM)	50 (≈ 116 µM)	12.5 (≈ 29 µM)	CC1=N/C(=C\c2ccc(C)cc2)C(=O)N1c1ccc(/C(C)=N/N=C2/NC(=O)CS2)cc1							
1000 (≈ 2210 µM)	100 (≈ 221 µM)	1000 (≈ 2210 µM)	500 (≈ 1110 µM)	250 (≈ 553 µM)	1000 (≈ 2210 µM)	500 (≈ 1110 µM)	CC1=N/C(=C\c2ccccc2Cl)C(=O)N1c1ccc(/C(C)=N/N=C2/NC(=O)CS2)cc1							
250 (≈ 559 µM)	100 (≈ 223 µM)	500 (≈ 1120 µM)	250 (≈ 559 µM)	50 (≈ 112 µM)	250 (≈ 559 µM)	500 (≈ 1120 µM)	COc1ccc(/C=C2\N=C(C)N(c3ccc(/C(C)=N/N=C4/NC(=O)CS4)cc3)C2=O)cc1							
250 (≈ 541 µM)	100 (≈ 216 µM)	500 (≈ 1080 µM)	500 (≈ 1080 µM)	250 (≈ 541 µM)	100 (≈ 216 µM)	250 (≈ 541 µM)	CC1=N/C(=C\c2ccc([N+](=O)[O-])cc2)C(=O)N1c1ccc(/C(C)=N/N=C2/NC(=O)CS2)cc1							
500 (≈ 1150 µM)	250 (≈ 574 µM)	500 (≈ 1150 µM)	250 (≈ 574 µM)	500 (≈ 1150 µM)	500 (≈ 1150 µM)	100 (≈ 230 µM)	CC1=N/C(=C\c2ccc(F)cc2)C(=O)N1c1ccc(/C(C)=N/N=C2/NC(=O)CS2)cc1							
500 (≈ 1080 µM)	500 (≈ 1080 µM)	500 (≈ 1080 µM)	100 (≈ 216 µM)	100 (≈ 216 µM)	500 (≈ 1080 µM)	250 (≈ 541 µM)	CC1=N/C(=C\c2ccccc2[N+](=O)[O-])C(=O)N1c1ccc(/C(C)=N/N=C2/NC(=O)CS2)cc1							
250 (≈ 785 µM)			1000 (≈ 3140 µM)		250 (≈ 785 µM)	1000 (≈ 3140 µM)	CC(=O)c1ccc(N2C(=O)/C(=C\c3ccc(C)cc3)N=C2C)cc1		inactive	inactive		inactive	inactive	
250 (≈ 748 µM)					250 (≈ 748 µM)		COc1ccccc1/C=C1/N=C(C)N(c2ccc(C(C)=O)cc2)C1=O	inactive	inactive	inactive	inactive	inactive	inactive	
		1000 (≈ 3120 µM)	1000 (≈ 3120 µM)		1000 (≈ 3120 µM)	1000 (≈ 3120 µM)	CC(=O)c1ccc(N2C(=O)/C(=C\c3ccc(O)cc3)N=C2C)cc1		inactive	inactive				inactive
50 (≈ 115 µM)	100 (≈ 231 µM)	50 (≈ 115 µM)	50 (≈ 115 µM)	50 (≈ 115 µM)	100 (≈ 231 µM)	50 (≈ 115 µM)	CC1=N/C(=C\c2ccc(O)cc2)C(=O)N1c1ccc(/C(C)=N/N=C2/NC(=O)CS2)cc1							
250 (≈ 579 µM)	250 (≈ 579 µM)	500 (≈ 1160 µM)	500 (≈ 1160 µM)	100 (≈ 232 µM)	100 (≈ 232 µM)	100 (≈ 232 µM)	CC1=N/C(=C\c2cccc(C)c2)C(=O)N1c1ccc(/C(C)=N/N=C2/NC(=O)CS2)cc1							
100 (≈ 223 µM)	50 (≈ 112 µM)	500 (≈ 1120 µM)	250 (≈ 559 µM)	100 (≈ 223 µM)	25 (≈ 55.9 µM)	50 (≈ 112 µM)	COc1ccccc1/C=C1\N=C(C)N(c2ccc(/C(C)=N/N=C3/NC(=O)CS3)cc2)C1=O							
50 (≈ 115 µM)	25 (≈ 57.7 µM)	100 (≈ 231 µM)	100 (≈ 231 µM)	100 (≈ 231 µM)	100 (≈ 231 µM)	250 (≈ 577 µM)	CC1=N/C(=C\c2ccccc2O)C(=O)N1c1ccc(/C(C)=N/N=C2/NC(=O)CS2)cc1							
